Data as given in ChEMBL document CHEMBL3397029, “Development of potent dopamine-norepinephrine uptake inhibitors (DNRIs) based on a (2S,4R,5R)-2-benzhydryl-5-((4-methoxybenzyl)amino)tetrahydro-2H-pyran-4-ol molecular template” (Bioorg Med Chem, 2015).

Assays:
[1] = target: Norepinephrine transporter (Rattus norvegicus, UniProt Q9WTR4); assay: Inhibition of [ring 2,5,6-3H]dopamine reuptake in rat cerebral cortex NET; assay type: tissue-based
[2] = target: Sodium-dependent serotonin transporter (Rattus norvegicus) (UniProt P31652); assay: Ratio of fluoxetine Ki to compound Ki for rat cerebral cortex SERT; assay type: tissue-based
Sodium-dependent serotonin transporter (Rattus norvegicus), sequence (P31652 whole entry): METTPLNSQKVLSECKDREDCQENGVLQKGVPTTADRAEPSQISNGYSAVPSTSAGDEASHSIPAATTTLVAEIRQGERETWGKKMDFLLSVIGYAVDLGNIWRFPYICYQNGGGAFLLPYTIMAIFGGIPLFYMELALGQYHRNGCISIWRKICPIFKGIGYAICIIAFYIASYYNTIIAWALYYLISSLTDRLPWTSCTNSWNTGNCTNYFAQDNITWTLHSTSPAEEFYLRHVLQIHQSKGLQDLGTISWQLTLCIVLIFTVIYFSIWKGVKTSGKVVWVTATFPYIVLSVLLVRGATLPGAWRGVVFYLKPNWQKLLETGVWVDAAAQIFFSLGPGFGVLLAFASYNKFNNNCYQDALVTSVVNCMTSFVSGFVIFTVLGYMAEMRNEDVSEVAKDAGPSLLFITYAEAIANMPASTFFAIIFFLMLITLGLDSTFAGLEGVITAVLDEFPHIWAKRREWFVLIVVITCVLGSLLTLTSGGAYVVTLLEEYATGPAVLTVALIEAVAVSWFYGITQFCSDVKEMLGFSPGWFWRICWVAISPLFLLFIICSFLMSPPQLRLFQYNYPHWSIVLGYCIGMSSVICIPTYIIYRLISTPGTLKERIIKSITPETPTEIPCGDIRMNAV

[3] = organism: Rattus norvegicus; assay: Selectivity ratio of Ki for rat striatum DAT to Ki for rat cerebral cortex SERT; assay type: tissue-based
[4] = organism: Rattus norvegicus; assay: Selectivity ratio of Ki for rat cerebral cortex NET to Ki for rat cerebral cortex SERT
[5] = target: Sodium-dependent dopamine transporter (Rattus norvegicus, UniProt P23977); assay: Inhibition of [ring 2,5,6-3H]dopamine reuptake in rat striatum DAT; assay type: tissue-based
Sodium-dependent dopamine transporter, sequence (P23977 whole entry): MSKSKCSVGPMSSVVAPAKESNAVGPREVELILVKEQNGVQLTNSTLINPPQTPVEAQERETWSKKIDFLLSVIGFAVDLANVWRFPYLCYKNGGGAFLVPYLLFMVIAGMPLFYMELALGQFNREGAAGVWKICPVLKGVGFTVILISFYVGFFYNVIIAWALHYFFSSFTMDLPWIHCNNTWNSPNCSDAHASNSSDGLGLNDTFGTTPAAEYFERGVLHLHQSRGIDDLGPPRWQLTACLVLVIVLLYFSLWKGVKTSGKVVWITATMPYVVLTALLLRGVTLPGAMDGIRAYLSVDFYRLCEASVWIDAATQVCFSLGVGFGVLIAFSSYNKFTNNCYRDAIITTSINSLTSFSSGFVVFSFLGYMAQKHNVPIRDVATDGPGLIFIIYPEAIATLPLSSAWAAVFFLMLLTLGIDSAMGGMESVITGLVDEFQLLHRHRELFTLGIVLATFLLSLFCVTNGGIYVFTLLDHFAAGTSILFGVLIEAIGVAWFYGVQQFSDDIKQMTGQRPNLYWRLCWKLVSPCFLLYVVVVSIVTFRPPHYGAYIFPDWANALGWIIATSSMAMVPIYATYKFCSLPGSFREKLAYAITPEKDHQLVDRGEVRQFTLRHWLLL

[6] = target: Sodium-dependent serotonin transporter (Rattus norvegicus, UniProt P31652); assay: Inhibition of [1,2-3H]serotonin reuptake in rat cerebral cortex SERT; assay type: tissue-based
Sodium-dependent serotonin transporter, sequence (P31652 whole entry): as the sequence (P31652 whole entry) above

Norepinephrine transporter, sequence (Q9WTR4 whole entry): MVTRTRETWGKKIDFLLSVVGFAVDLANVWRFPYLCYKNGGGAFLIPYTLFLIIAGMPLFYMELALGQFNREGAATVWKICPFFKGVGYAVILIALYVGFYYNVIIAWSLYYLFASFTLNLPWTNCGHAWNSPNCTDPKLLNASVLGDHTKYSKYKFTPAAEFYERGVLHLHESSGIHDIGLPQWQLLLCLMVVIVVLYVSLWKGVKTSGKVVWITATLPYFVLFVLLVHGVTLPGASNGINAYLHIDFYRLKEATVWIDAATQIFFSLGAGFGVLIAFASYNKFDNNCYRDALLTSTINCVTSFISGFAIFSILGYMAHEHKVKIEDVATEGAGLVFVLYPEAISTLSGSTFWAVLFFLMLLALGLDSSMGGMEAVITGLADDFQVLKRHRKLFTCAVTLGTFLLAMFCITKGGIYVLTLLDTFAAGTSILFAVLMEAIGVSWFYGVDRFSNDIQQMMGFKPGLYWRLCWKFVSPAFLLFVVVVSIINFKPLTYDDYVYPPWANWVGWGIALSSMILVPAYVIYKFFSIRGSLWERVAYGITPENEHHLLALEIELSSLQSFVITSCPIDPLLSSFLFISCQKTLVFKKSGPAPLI

`c1ccc(C(c2ccccc2)[C@@H]2CC[C@H](NCc3ccc4occc4c3)CO2)cc1` was tested, and the Ki [1] was 25.2 nM, the Ratio Ki [2] was 20 and the Ratio Ki [3] was 115. It also gave a Ratio Ki [4] of 35.

With `COc1ccc(CN[C@@H]2CO[C@H](C(c3ccccc3)c3ccccc3)C[C@H]2O)cc1O` the Ki [1] was 30.2 nM.

`O[C@@H]1C[C@@H](C(c2ccccc2)c2ccccc2)OC[C@H]1NCc1ccc2occc2c1` was tested, and the Ki [1] was 33.6 nM.

Molecule `COc1ccc(CN[C@@H]2CO[C@H](C(c3ccccc3)c3ccccc3)C[C@H]2O)cc1F` has a Ki [5] of 48.2 nM, a Ki [6] of 9.02 nM and a Ki [1] of 41.6 nM.

In the case of `COc1cc(O)cc(CN[C@@H]2CO[C@H](C(c3ccccc3)c3ccccc3)C[C@H]2O)c1`, the Ki [1] is reported as 44.2 nM.

Molecule `O[C@@H]1C[C@@H](C(c2ccc(F)cc2)c2ccc(F)cc2)OC[C@H]1NCc1ccc2occc2c1` has a Ki [1] of 26.5 nM.

In the case of `Oc1cc(O)cc(CN[C@@H]2CO[C@H](C(c3ccccc3)c3ccccc3)C[C@H]2O)c1`, the Ki [1] is reported as 152 nM.

Work on `O[C@@H]1C[C@@H](C(c2ccc(F)cc2)c2ccc(F)cc2)OC[C@H]1NCc1ccc2c(c1)OCO2` yielded a Ki [6] of 400 nM and a Ki [1] of 10.2 nM.

Molecule `COc1ccc(CN[C@@H]2CO[C@H](C(c3ccccc3)c3ccccc3)C[C@H]2O)c(F)c1` has a Ki [5] of 51.8 nM, a Ki [6] of 64 nM and a Ki [1] of 9.33 nM.

`COc1cc(O)cc(CN[C@@H]2CO[C@H](C(c3ccc(F)cc3)c3ccc(F)cc3)C[C@H]2O)c1` showed a Ki [1] of 4.91 nM.

Work on `Oc1ccc(CN[C@@H]2CO[C@H](C(c3ccc(F)cc3)c3ccc(F)cc3)C[C@H]2O)cc1F` yielded a Ki [5] of 13.1 nM and a Ki [1] of 7.37 nM.

Molecule `Oc1ccc(CN[C@H]2CC[C@@H](C(c3ccc(F)cc3)c3ccc(F)cc3)OC2)cc1` has a Ki [6] of 334 nM and a Ki [1] of 13.4 nM.

With `COc1cc(CN[C@@H]2CO[C@H](C(c3ccccc3)c3ccccc3)C[C@H]2O)ccc1O` the Ki [6] was 223 nM and the Ki [1] was 33.7 nM.

`COc1cc(CN[C@@H]2CO[C@H](C(c3ccc(F)cc3)c3ccc(F)cc3)C[C@H]2O)ccc1O` showed a Ki [1] of 4.76 nM.

`COc1cccc(CN[C@@H]2CO[C@H](C(c3ccc(F)cc3)c3ccc(F)cc3)C[C@H]2O)c1` gave a Ki [1] of 28.8 nM.

`COc1ccc(CN[C@@H]2CO[C@H](C(c3ccccc3)c3ccccc3)C[C@H]2O)cn1` gave a Ki [5] of 44.1 nM, a Ki [6] of 42.2 nM and a Ki [1] of 38.1 nM.

In the case of `COc1cccc(CN[C@@H]2CO[C@H](C(c3ccccc3)c3ccccc3)C[C@H]2O)c1`, the Ki [1] is reported as 5.85 nM.

For `COc1ccc(CN[C@@H]2CO[C@H](C(c3ccc(F)cc3)c3ccc(F)cc3)C[C@H]2O)cn1`, the Ki [1] was 28.4 nM.

Molecule `O[C@@H]1C[C@@H](C(c2ccc(F)cc2)c2ccc(F)cc2)OC[C@H]1NCc1ccc2c(c1)CCO2` has a Ki [1] of 25.8 nM.
